Source: patent US6033891A, “Nucleic acids encoding polypeptides having cellobiose dehydrogenase activity” (Novo Nordisk Biotech, Inc., priority 1999, dated 2000)
Like-named read-outs stand apart in the source and are kept apart here.

Target: T1, Humicola insolens cellobiose dehydrogenase, wild type (major form, 92 kDa, pI 4.0, purified from CELLUZYME), SEQ ID NO:2 (Mycothermus thermophilus, UniProt Q9P8H5)
T1 construct: mature 22-785 after 21-residue signal peptide
T1 sequence (Q9P8H5 22-785): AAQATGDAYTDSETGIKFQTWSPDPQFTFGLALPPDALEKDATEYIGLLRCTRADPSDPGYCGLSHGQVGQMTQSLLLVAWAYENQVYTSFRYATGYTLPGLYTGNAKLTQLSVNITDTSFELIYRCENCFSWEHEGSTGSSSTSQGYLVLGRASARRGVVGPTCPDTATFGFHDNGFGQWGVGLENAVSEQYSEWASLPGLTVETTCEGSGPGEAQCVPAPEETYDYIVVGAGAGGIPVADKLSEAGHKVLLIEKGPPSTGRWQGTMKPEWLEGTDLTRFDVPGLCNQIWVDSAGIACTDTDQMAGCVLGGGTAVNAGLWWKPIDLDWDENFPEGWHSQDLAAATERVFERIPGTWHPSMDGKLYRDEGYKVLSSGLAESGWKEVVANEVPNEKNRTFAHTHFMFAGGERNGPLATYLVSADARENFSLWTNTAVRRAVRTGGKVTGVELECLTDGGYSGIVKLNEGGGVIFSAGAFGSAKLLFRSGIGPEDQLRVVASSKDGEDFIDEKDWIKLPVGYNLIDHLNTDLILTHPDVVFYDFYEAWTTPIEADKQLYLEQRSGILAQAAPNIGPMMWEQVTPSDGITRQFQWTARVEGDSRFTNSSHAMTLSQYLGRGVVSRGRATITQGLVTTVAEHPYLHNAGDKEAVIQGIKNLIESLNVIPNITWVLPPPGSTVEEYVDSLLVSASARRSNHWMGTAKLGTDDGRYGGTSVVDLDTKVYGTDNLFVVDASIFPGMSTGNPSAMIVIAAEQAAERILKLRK
Test: Steady-state kinetics of cellobiose dehydrogenase with electron donors and acceptors (Lineweaver-Burke plots)
Assay type: biochemical
Conditions: 0.1 M sodium phosphate pH 7.5, 40° C.; for kcat (electron donor sugar) / kcat (electron acceptor): mol of oxidized cellobiose/s/mol of enzyme
Procedure: All absorption spectra and kinetic measurements were recorded on a Hewlett-Packard 8452A Diode Array Spectrophotometer in 0.75 ml black cuvettes with 1 cm optical path. The fluorescence spectra were recorded on a PERKIN ELMER LS 50.
Potassium ferricyanide (Merck): ε420 =970 M^-1.cm^-1, 3,5-di-tert-butyl-1,2-benzoquinone (Merck): ε410 =1,400 M^-1.cm^-1, Methylene Blue (Merck): ε610 =42,000 M^-1.cm^-1, cytochrome c (Sigma, from horse heart): ε550 =8,000 M^-1.cm^-1.
All measurements were performed in 0.1 M sodium phosphate pH 7.5 buffer at 40° C. […] The reactions were monitored for 400 s as changes in absorbance at the appropriate wavelength (see above). The benzoquinone was dissolved in ethanol to a concentration of 10 mM and diluted in phosphate buffer to the appropriate concentration. The catalytic constants (kcat) were expressed as mol of oxidized cellobiose/s/mol of enzyme. One equivalent of DCPIP, Methylene Blue, or benzoquinone oxidizes one equivalent of cellobiose whereas two equivalents of cytochrome c or ferricyanide oxidizes one equivalent of cellobiose. The kinetic constants were determined using Lineweaver-Burke plots and were the result of dual determinations.

[1] = sugar + 90 μM DCPIP, read-out: Km (electron donor sugar)
[2] = electron acceptor + 225 μM cellobiose
[3] = electron acceptor + 225 μM cellobiose, read-out: Km (electron acceptor)

Row | SMILES | kcat (electron donor sugar) (sugar + 90 μM DCPIP) | Km [1] | kcat (electron acceptor) [2] | Km [3]
1 | OC[C@H]1O[C@@H](O[C@H]2[C@H](O)[C@@H](O)C(O)O[C@@H]2CO)[C@H](O)[C@@H](O)[C@@H]1O (stereo partly drawn) [Cellobiose] | 10 s⁻¹ | 11 µM | – | –
2 | OC[C@H]1O[C@@H](O[C@H]2[C@H](O)[C@@H](O)[C@H](O[C@H]3[C@H](O)[C@@H](O)[C@H](O[C@H]4[C@H](O)[C@@H](O)[C@H](O[C@H]5[C@H](O)[C@@H](O)C(O)O[C@@H]5CO)O[C@@H]4CO)O[C@@H]3CO)O[C@@H]2CO)[C@H](O)[C@@H](O)[C@@H]1O (stereo partly drawn) [Cellopentaose] | 8.3 s⁻¹ | – | – | –
3 | O=C1C(Cl)=CC(=Nc2ccc(O)cc2)C=C1Cl [DCPIP, 2,6-dichlorophenolindophenol] | – | – | 12 s⁻¹ | 26 µM
4 | OC[C@H]1OC(O)[C@H](O)[C@@H](O)[C@@H]1O (stereo partly drawn) [Glucose] | 0 s⁻¹ | – | – | –
5 | OC[C@H]1O[C@@H](O[C@H]2[C@H](O)[C@@H](O)C(O)O[C@@H]2CO)[C@H](O)[C@@H](O)[C@H]1O (stereo partly drawn) [Lactose] | 10 s⁻¹ | 51 µM | – | –
6 | OC[C@H]1O[C@H](O[C@H]2[C@H](O)[C@@H](O)[C@H](O)O[C@@H]2CO)[C@H](O)[C@@H](O)[C@@H]1O [Maltose] | 0.83 s⁻¹ | 11000 µM | – | –
7 | CN(C)c1ccc2nc3ccc(=[N+](C)C)cc-3sc2c1 [Methylene Blue] | – | – | 1.85 s⁻¹ | 18 µM
8 | CC(=O)N[C@H]1[C@H](O[C@H]2[C@H](O)[C@@H](NC(C)=O)C(O)O[C@@H]2CO)O[C@H](CO)[C@@H](O)[C@@H]1O (stereo partly drawn) [N,N-Diacetylchitobiose, N,N-diacetylchitobiose] | 0 s⁻¹ | – | – | –
9 | CC(=O)N[C@H]1C(O)O[C@H](CO)[C@@H](O[C@@H]2O[C@H](CO)[C@H](O)[C@H](O)[C@H]2O)[C@@H]1O (stereo partly drawn) [N-Acetyllactosamine, N-acetyllactosamine] | 0 s⁻¹ | – | – | –
10 | OC1OC[C@@H](O[C@@H]2OC[C@@H](O)[C@H](O)[C@H]2O)[C@H](O)[C@H]1O (stereo partly drawn) [Xylobiose] | 2.15 s⁻¹ | – | – | –
